Results on 2 molecules are retold here after article PMC8223974, “Anti-Cancer and Immunomodulatory Activity of a Polyethylene Glycol-Betulinic Acid Conjugate on Pancreatic Cancer Cells” (Life, 2021).

“And” between values parts separate entries of the source, which are not always exact repeats. Equal entries are not always repeated.

Data set [1] deals with MIA PaCa-2 cells. Put plainly: XTT cytotoxicity assay on MIA PaCa-2 cells. The data set is classed as cell-based. Conditions: 72 h. As to the method:
(§1) The cytotoxic effect of BA and PEG–BA was assessed using the 2,3-bis-(2-methoxy-4-nitro-5-sulfophenyl)-2H-tetrazolium-5-carboxanilide (XTT) assay, an improved tetrazolium dye based assay that obviates the solubilisation step [41]. A concentration of 1 × 10^5 cells/mL each of adherent MIA PaCa-2 and Vero cells were seeded into 96-well plates (BD Biosciences, San Diego, California, USA) overnight before treatment with the compounds at concentrations ranging from 0.4 to 100 µM for 72 h. Doxorubicin (0.2 µg/mL) was used as a positive control for cell death assessment and DMSO was used as a vehicle control. After treatment, washed cells (433× g, 5 min, 25 °C) were exposed to 125 µL of complete DMEM containing 25 µL of XTT solution and incubated (37 °C, 5% CO2, 95% humidity) for 4 h. The optical density of the mixture was measured at 450 nm with a background at 690 nm using a Multiskan Ascent 96/384 microplate reader (Labsystem, Vantaa, Finland). Cell viability was determined as a percentage relative to the vehicle control. The IC50 was then calculated using GraphPad Prism 6 (GraphPad Software, Inc, San Diego, CA, USA). The selectivity index (IC50 Vero cells/IC50 MIA PaCa-2) and potentiation factor (PF50) at 50% growth inhibition (IC50) were also determined. The PF50 is the IC50 value of free drug divided by the IC50 value obtained from a combination of drugs, which is the polymer drug conjugate in this case. Statistical significance was calculated using a two-way analysis of variant (ANOVA) and the Bonferroni post-test to compare replicate means in GraphPad Prism 6 (GraphPad Software, Inc, San Diego, CA, USA). A p < 0.05 was considered to be statistically significant.
Background: Tetrazolium dyes change colour on reduction, which living cells bring about.

Data set [2] relates to Vero cells. The data set is described as follows: XTT cytotoxicity assay on Vero cells. It is filed as cell-based. Conditions: 72 h. As to the method: as §1, with “The selectivity index (IC50 Vero cells/IC50 MIA PaCa-2) and potentiation factor (PF50) at 50% growth inhibition (IC50) were also determined. The PF50 is the IC50 value of free drug divided by the IC50 value obtained from a combination of drugs, which is the polymer drug conjugate in this case.” left out, “A p < 0.05 was considered to be statistically significant.” left out

Data set [3] has as its system MIA PaCa-2 cells. The data set is described as follows: Annexin V-FITC / propidium iodide apoptosis detection by flow cytometry. The data set is classed as cell-based, human. Conditions: 4 µM, 72 h. As to the method: The mode of cell death induced by the BA and PEG–BA on MIA PaCa-2 and Vero cells was assessed using the Annexin V-FITC Apoptosis kit I (BD Biosciences, San Diego, CA, USA). The assay was performed per the manufacturer’s protocol and as previously described with slight modifications. The cells were analysed for apoptosis and necrosis after acquiring 30,000 events using a BD LSRFortessa™ Analyser (BD Biosciences, San Diego, CA, USA). The BD FACSDiva software was used to detect fluorescein isothiocyanate (FITC) positive signals for apoptotic cells (Annexin-v positive) on a 530/30 filter and peridinin–chlorophyll–protein (PerCP) positive signals for necrotic cells (propidium iodide positive) on a 610/20 band pass filter. Apoptosis was determined at three different concentrations around the IC50, 1, 1.7 and 4 µM. Doxorubicin (0.2 ug/mL) was used as a positive control for apoptosis induction. The data were exported as flow cytometry standard (FCS) files and analysed using FlowJo software Version 10 (FlowJo, LLC, Ashland, OR, USA). The data were exported and represented as means ± standard error of three independent experiments using GraphPad Prism 6.
(A flow cytometer gives signals particle by particle.)

The nature of data set [4]: MTT cytotoxicity assay on PBMCs. It is filed as cell-based, human. Conditions: human, peripheral blood mononuclear cells (PBMCs), n = 4, read-out: PBMC viability. Here is the method:
(§2) The supernatant obtained from PBMCs (1 × 10^6 cells/mL) treated and incubated (72 h, 37 °C, 5% CO2, 95% humidity) with BA and PEG–BA (3 µM) were used for this assay. Cytotoxicity was performed on isolated PBMCs (see Supplementary Materials for isolation protocol) using the 3-(4,5-dimethylthiazol-2-yl)-2,5-diphenyl tetrazolium bromide (MTT) assay as previously described. For the cytometric bead array (CBA) assay, the PBMCs were isolated from both consenting PC patients (n = 4) and healthy control donors (n = 2). Ethics clearance to collect blood samples was obtained from the Human Research Ethics Committee (Medical) of the University of the Witwatersrand (M170440). The PBMCs were stimulated with 2 µg/mL of phytohaemagglutinin-protein (PHA-P). After the 72 h incubation period, the cells and medium were transferred to 5 mL Falcon® round-bottom polypropylene tubes and centrifuged at 433× g for 5 min at room temperature. Aliquots of the cell-free supernatant were collected and stored at −80 °C until needed for experiments.

The subject of data set [5] is peripheral blood mononuclear cells (PBMCs). The data set is described as follows: MTT cytotoxicity assay on PBMCs. It is filed as cell-based, human. Conditions: 3 µM. As to the method: as §2
Data set [6] has as its system IL-6. Put plainly: Cytometric bead array Th1/Th2/Th17, IL-6 in supernatant of PHA-P stimulated PBMCs. Conditions: 3 µM, 72 h. The data set is classed as cell-based, human. Here is the method:
as §2, with “After the 72 h incubation period, the cells and medium were transferred to 5 mL Falcon® round-bottom polypropylene tubes and centrifuged at 433× g for 5 min at room temperature. Aliquots of the cell-free supernatant were collected and stored at −80 °C until needed for experiments.” left out
The CBA Th1/Th2/Th17 assay was performed according to the manufacturer’s instructions (BD Biosciences, La Jolla, San Diego, CA, USA) and as previously described, but with minor modifications. […] Specific fluorescence associated with each bead population was detected using flow cytometry allowing for the identification of the various cytokines in the sample. […] Acquired FCS files were analysed using a flow cytometric analysis software (FCAPArray™) from BD Biosciences. Interferon-gamma (IFN-γ), TNF-α, IL-2, IL-4, IL-6, IL-10 and IL-17A concentrations were all determined from standard curves. […]

Turning to `C=C(C)[C@@H]1CC[C@]2(C(=O)O)CC[C@]3(C)[C@H](CC[C@@H]4[C@@]5(C)CC[C@H](O)C(C)(C)[C@@H]5CC[C@]43C)[C@@H]12` [BA, betulinic acid], the IC50 (in general, the concentration needed to halve the response being measured) worked out at 12.7 ± 0.34 µM in data set [1] (Homo sapiens, MIA PaCa-2 cells, XTT) and 18.2 ± 0.09 µM in data set [2] (Primates, XTT). Besides, the “selectivity index (SI) (IC50 Vero cells/IC50 MIA PaCa-2)” value in data set [1] (Vero vs MIA PaCa-2, XTT) is 1.4 and 1.43. In addition, the “highest apoptotic effect (mainly late-apoptotic phase)” value in data set [3] turned out to be 31.43 ± 16.7%. Further, the viability – broadly, a per cent measure of how many cells are alive, often set against a control – at 72 h, 3 µM in data set [4] came out at 9.2 ± 0.8%. For the same molecule, the “cytotoxicity on PBMCs” value in data set [5] is given as 49.2 ± 0.8%. The IL-6 concentration was 5430.94 pg/mL in data set [6] (PBMCs of PC patients (n = 4), average) and 396.24 pg/mL in data set [6] (PBMCs of control participants (n = 2)).

As for `COc1cccc2c1C(=O)c1c(O)c3c(c(O)c1C2=O)C[C@@](O)(C(=O)CO)C[C@@H]3O[C@H]1C[C@H](N)[C@H](O)[C@H](C)O1` [Doxorubicin], the “cell death (cytotoxicity)” value is reported as 83.3 ± 1.6% in data set [1] (MIA PaCa-2 cells, 0.2 µg/mL (0.4 µM)) and 43.24 ± 14.2% in data set [2] (0.2 µg/mL (0.4 µM)).
